ChEMBL document CHEMBL3817753, “Neurosteroid-like Inhibitors of N-Methyl-d-aspartate Receptor: Substituted 2-Sulfates and 2-Hemisuccinates of Perhydrophenanthrene” (J Med Chem, 2016)

Key:
[1] = Inhibition of GABAR in rat hippocampal neurons assessed as suppression of GABA-induced current by whole-cell patch-clamp method; assay type: tissue-based; details: Hippocampus
[2] = molecular target: Glutamate NMDA receptor; Grin1/Grin2b (Rattus norvegicus, UniProt P35439+Q00960); test: Inhibition of recombinant rat GluN1a/GluN2B co-expressed in HEK293 cells assessed as suppression of glutamate-induced current by patch-clamp method; assay type: cell-based
Chain of Glutamate NMDA receptor; Grin1/Grin2b (Q00960 whole entry, other chains not shown): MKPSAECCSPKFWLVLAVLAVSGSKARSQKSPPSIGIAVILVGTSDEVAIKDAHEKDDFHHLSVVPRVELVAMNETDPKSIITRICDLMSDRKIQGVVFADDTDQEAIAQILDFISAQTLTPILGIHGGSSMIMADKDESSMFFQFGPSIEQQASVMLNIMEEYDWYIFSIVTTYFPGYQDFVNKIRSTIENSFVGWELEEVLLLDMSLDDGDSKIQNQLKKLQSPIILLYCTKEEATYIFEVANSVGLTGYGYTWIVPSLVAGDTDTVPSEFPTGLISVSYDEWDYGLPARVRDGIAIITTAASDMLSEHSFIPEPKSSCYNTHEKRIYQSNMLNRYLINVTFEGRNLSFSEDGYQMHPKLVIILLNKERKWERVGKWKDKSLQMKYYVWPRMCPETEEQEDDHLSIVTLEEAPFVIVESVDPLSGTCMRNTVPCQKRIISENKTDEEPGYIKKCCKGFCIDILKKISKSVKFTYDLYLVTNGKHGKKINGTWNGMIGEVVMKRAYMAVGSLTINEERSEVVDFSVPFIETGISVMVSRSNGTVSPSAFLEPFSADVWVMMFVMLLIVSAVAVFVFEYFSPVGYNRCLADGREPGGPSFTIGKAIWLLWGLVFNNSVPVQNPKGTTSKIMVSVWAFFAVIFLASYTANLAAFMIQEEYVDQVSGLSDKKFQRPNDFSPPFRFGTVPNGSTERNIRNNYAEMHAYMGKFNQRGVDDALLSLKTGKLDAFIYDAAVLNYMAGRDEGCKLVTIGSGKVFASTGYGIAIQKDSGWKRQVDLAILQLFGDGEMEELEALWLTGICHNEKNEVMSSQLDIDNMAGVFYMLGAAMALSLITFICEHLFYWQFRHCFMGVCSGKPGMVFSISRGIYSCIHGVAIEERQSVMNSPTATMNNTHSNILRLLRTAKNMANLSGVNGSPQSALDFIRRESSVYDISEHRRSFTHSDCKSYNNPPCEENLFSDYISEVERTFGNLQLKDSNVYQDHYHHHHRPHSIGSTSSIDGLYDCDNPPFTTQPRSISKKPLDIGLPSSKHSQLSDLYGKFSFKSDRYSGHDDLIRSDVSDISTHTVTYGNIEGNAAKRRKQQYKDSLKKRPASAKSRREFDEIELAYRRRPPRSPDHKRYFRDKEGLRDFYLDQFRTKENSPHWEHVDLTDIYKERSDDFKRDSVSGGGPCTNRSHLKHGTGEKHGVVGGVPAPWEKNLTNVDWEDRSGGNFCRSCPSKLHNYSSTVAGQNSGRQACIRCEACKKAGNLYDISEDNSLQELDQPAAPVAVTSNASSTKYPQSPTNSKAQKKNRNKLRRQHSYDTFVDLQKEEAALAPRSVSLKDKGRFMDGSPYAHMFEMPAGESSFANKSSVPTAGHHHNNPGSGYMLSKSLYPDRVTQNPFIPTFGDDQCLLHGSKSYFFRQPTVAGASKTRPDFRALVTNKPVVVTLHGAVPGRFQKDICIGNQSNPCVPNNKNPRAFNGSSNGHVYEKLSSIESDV

[3] = Inhibition of NMDAR in rat hippocampal neurons assessed as suppression of NMDA-induced current by whole-cell patch-clamp method; assay type: tissue-based; details: Hippocampus
[4] = molecular target: Ionotropic glutamate receptor NMDA 1/2D (Rattus norvegicus, UniProt P35439+Q62645); test: Inhibition of recombinant rat GluN1a/GluN2D co-expressed in HEK293 cells assessed as suppression of glutamate-induced current by patch-clamp method; assay type: cell-based
Chain of Ionotropic glutamate receptor NMDA 1/2D (Q62645 whole entry, other chains not shown): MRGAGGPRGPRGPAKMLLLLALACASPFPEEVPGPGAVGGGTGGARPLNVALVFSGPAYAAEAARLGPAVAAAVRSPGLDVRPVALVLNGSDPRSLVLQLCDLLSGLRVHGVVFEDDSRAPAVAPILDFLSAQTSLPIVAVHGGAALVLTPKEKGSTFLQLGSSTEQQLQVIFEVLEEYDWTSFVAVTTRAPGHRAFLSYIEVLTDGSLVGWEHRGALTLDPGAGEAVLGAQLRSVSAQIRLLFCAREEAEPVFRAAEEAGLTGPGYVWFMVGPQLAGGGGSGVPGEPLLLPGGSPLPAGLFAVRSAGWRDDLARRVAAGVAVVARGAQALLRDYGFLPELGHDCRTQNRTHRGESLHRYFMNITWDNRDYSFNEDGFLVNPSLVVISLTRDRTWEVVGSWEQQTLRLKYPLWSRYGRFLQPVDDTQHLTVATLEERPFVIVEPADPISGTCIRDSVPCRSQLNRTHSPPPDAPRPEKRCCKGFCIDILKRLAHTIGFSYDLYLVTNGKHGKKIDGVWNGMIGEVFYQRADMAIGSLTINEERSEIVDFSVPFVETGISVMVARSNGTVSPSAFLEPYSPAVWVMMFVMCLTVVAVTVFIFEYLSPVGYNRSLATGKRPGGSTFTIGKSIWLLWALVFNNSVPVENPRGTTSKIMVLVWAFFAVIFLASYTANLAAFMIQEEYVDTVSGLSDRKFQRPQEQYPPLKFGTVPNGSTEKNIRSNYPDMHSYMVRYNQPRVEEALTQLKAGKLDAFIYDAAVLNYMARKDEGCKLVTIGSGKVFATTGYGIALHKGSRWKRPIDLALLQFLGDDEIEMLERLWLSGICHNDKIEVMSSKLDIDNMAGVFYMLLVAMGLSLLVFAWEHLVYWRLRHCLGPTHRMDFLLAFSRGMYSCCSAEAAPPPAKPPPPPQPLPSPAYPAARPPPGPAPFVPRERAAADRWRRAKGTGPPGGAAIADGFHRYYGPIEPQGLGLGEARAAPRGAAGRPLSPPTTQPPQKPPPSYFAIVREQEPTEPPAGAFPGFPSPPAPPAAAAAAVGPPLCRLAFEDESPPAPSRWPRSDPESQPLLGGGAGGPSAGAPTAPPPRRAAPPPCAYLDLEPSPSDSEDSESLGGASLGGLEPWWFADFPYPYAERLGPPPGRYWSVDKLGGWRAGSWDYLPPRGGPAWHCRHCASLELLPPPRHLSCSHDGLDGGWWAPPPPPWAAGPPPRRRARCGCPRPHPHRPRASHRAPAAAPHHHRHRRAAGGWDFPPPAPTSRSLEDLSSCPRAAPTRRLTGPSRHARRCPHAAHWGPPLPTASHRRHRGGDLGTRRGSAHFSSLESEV

[5] = molecular target: Glutamate NMDA receptor; Grin1/Grin2a (Rattus norvegicus, UniProt P35439+Q00959); test: Inhibition of recombinant rat GluN1a/GluN2A co-expressed in HEK293 cells assessed as suppression of glutamate-induced current by patch-clamp method; assay type: cell-based
[6] = Inhibition of AMPAR in rat hippocampal neurons assessed as suppression of AMPA-induced current by whole-cell patch-clamp method; assay type: tissue-based; details: Hippocampus
[7] = molecular target: Glutamate NMDA receptor; Grin1/Grin2c (Rattus norvegicus, UniProt P35439+Q00961); test: Inhibition of recombinant rat GluN1a/GluN2C co-expressed in HEK293 cells assessed as suppression of glutamate-induced current by patch-clamp method; assay type: cell-based
Chain of Glutamate NMDA receptor; Grin1/Grin2c (Q00961 whole entry, other chains not shown): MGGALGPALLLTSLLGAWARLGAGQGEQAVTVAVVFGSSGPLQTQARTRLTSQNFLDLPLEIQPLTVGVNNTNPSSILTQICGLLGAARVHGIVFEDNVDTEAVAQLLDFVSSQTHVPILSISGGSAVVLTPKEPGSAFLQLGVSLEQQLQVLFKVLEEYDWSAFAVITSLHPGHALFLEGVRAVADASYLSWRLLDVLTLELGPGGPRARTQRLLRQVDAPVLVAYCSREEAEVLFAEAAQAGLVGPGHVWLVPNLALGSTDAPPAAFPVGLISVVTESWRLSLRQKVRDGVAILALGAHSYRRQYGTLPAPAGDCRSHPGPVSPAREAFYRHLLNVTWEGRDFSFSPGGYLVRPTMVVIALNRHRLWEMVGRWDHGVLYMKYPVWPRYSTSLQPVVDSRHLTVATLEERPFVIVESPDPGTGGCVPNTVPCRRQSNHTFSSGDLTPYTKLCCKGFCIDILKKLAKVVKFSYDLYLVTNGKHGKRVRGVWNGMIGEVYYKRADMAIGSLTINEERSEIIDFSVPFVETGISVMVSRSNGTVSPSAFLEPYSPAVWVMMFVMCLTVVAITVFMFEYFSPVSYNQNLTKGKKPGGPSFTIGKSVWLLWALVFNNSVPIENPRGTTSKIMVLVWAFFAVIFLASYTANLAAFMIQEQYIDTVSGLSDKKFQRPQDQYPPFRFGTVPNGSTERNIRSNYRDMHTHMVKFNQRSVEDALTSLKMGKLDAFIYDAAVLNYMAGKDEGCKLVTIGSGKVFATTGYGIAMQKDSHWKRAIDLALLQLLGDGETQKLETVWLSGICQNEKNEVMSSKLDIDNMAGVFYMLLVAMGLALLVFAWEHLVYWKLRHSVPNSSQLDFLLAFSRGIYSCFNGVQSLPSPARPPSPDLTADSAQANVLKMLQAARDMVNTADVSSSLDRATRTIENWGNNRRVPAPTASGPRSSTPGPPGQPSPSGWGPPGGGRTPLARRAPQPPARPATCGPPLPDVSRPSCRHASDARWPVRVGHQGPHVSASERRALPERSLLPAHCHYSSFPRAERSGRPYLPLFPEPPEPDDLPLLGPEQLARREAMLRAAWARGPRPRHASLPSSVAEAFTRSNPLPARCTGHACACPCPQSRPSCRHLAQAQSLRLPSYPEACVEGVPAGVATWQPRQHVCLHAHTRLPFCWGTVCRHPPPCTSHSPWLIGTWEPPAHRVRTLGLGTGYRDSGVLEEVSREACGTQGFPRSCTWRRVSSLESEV

`C[C@@H]1CC[C@H]2[C@@H](CC[C@@H]3C[C@H](OS(=O)(=O)O)CC[C@@]32C)C1.c1ccncc1` showed an IC50 [1] of 3.1 µM, an IC50 [2] of 15.6 µM and an IC50 [3] of 13.7 µM. It also gave an IC50 [4] of 8.1 µM, an IC50 [5] of 10.9 µM and an IC50 [6] of 83 µM. For the same molecule, the IC50 [7] was 11.1 µM.
`COC[C@@]1(C)CC[C@H]2[C@@H](CC[C@@H]3C[C@H](OC(=O)CCC(=O)O)CC[C@@]32C)C1` gave an IC50 [2] of 33.3 µM.
Work on `COC(=O)[C@@]1(C)CC[C@H]2[C@@H](CC[C@@H]3C[C@H](OS(=O)(=O)O)CC[C@@]32C)[C@@H]1C.c1ccncc1` yielded an IC50 [2] of 74.6 µM.
With `COC(=O)[C@@]1(C)CC[C@H]2[C@@H](CC[C@@H]3C[C@H](OC(=O)CCC(=O)O)CC[C@@]32C)[C@@H]1C` the IC50 [2] was 63.4 µM.
`COC[C@@]1(C)CC[C@H]2[C@@H](CC[C@@H]3C[C@H](OS(=O)(=O)O)CC[C@@]32C)C1.c1ccncc1` showed an IC50 [2] of 77 µM.
Work on `COC[C@@]1(C)CC[C@H]2[C@@H](CC[C@@H]3C[C@H](OC(=O)CCC(=O)O)CC[C@@]32C)[C@@H]1C` yielded an IC50 [2] of 29.2 µM.
Molecule `COC(=O)[C@@]1(C)CC[C@H]2[C@@H](CC[C@@H]3C[C@H](OC(=O)CCC(=O)O)CC[C@@]32C)C1` has an IC50 [2] of 87.6 µM.
